Laboratory results as given in US20060034882A1, “Yarns and fabrics having long-lasting mosquito repellent or antibacterial effect and their preparation” (FORMOSA TAFFETA CO., LTD., priority 2004, published 2006).

Key:
rabbits = details: cited from earlier work
rats = details: cited from earlier work
[1] = amount of compound contained in the fabric before and after laundering (Soxhlet extraction, HPLC); assay type: physicochemical; details: treated fabric of the Example; for Amounts, Laundering Number L0 (amount of the compound in the fabric before laundering): methylene dichloride extraction; for Amounts, Laundering Number L25 (amount of the compound in the fabric after 25 launderings): after 25 launderings (JIS L02173-103), methylene dichloride extraction 4 hours
Experimental: The fabric is subjected to a test for determining the amount of Permethrin and octylisothiazolone contained therein.
The compounds contained in the fabric are extracted, and determined by High Performance Liquid Chromatography (HPLC).
The fabric is laundered 25 times (JIS L02173-103). Then, the fabric is extracted for 4 hours with methylene dichloride in a Soxhlet extractor. The extract thus obtained is applied into HPLC for determining the amount of Permethrin or octylisothiazolone.
The amount of the compound contained in the fabric is determined by extraction and HPLC. L0 represents the amount of the compound before laundering. L25 represents the amount of the compound after 25 launderings.

Compound	LD50 for acute dermal toxicity in rabbits (rabbits)	LD50 for acute oral toxicity in rats (rats)	Amounts, Laundering Number L0 (amount of the compound in the fabric before laundering) [1]	Amounts, Laundering Number L25 (amount of the compound in the fabric after 25 launderings) [1]	Amounts, Laundering Number L25 (amount of the compound in the fabric after 25 launderings) ([1]; listed as octylisothiazolone)
CC1(C)C(C=C(Cl)Cl)C1C(=O)OCc1cccc(Oc2ccccc2)c1 (centres unmarked) [Permethrin]	greater than 2500 mg/kg	up to 470 mg/kg	536 ppm	–	–
CCCCCCCCn1sccc1=O [Octylisothiazolone, octylisothiazolone]	up to 311 mg/kg	up to 270 mg/kg	80 ppm	10 ppm	greater than 8 ppm
